Results reported in patent publication US20240091324A1, “GASTROINTESTINAL HEALTH COMPOSITION” (priority 2019, published 2024).

How the values were obtained:
[1] = test system: IL-8 release from Caco-2 monolayers; test: Release of IL-8 from polarised Caco-2 monolayers stimulated with LPS, TNF-α, IFN-β; format: cell-based, human; details: for % increase in anti-inflammatory activity compared to equivalent formulation without bromelain (difference of means): plus 80 ug/ml bromelain
Method: Inflammatory model of Caco-2 polarised monolayer stimulated with inflammatory mediators LPS, TNF-α, IFN-β: Polarised Caco-2 models were generated as previously described. When cell cultures reached a baseline TER of >1000/cm^2, the monolayers were stimulated by addition of 0.6 ml containing 50 ng/ml IFN-β, 10 μg/ml LPS and 5 ng/ml TNFα to the basolateral compartment. Immediately after the addition of the stimulation cocktail 0.25 ml of GaRP±0-80 μg/ml bromelain was applied to the apical compartment. After the 24 h incubation culture supernatants from the apical side were collected for quantitation of IL-8.
The human colorectal adenocarcinoma cell-line C2BBe1 was grown and maintained in Dulbecco's modified Eagle's medium (DMEM) supplemented with 10% v/v fetal bovine serum (FBS), 4 mM L-glutamine, 100 U/ml penicillin and […] streptomycin. All experiments were conducted on C2BBe1 cells within 12 passages after thawing.
In an experiment to evaluate the anti-inflammatory effect of bromelain or various GaRP formulations, 0.25 ml of test samples was applied to the apical side for 24 h, at the same time 0.6 ml of a cocktail containing 50 ng/ml IFN+10 ug/ml LPS+5 ng/ml TNF was added to the basolateral side in this model. After the 24 h incubation culture supernatants from the apical side were collected and IL-8 quantitated by ELISA.

[2] = test system: Enterocyte; test: Observed therapeutic effective dose determined in the in vitro experiments (Table 4); format: cell-based, human
Method: (§1) The observed therapeutic effective dose was determined in the in vitro experiments described herein.
(§2) Table 4 summarises the observed therapeutic effective dose for each GaRP formulation component.

[3] = test system: Macrophage; test: as above; format: cell-based, human
Method: as §1, §2

[4] = test system: Bacteria (AIEC obtained from IBD and IBS patients); details: menthol was not tested in vitro; published literature; cited from earlier work
[5] = test system: Enterocyte; details: menthol was not tested in vitro; published literature; cited from earlier work
[6] = test system: Macrophage; details: menthol was not tested in vitro; published literature; cited from earlier work
[7] = formulation or component plus 80 ug/ml bromelain, 24 h
[8] = without bromelain, test sample apical 24 h, IFN+LPS+TNF cocktail basolateral

Structure (SMILES) | % inhibition of the release of IL-8 Median ± SEM [1, 7] [%] | % increase in anti-inflammatory activity compared to equivalent formulation without bromelain (difference of means) [1] [%] | % inhibition of the release of IL-8 Median ± SEM [1, 8] [%] | observed therapeutic effective dose, Target cell Enterocyte (pg/cell) [2] [pg/cell] | observed therapeutic effective dose, Target cell Macrophage (pg/cell) [3] [pg/cell] | therapeutic effective dose, Target cell Bacteria (fg/cell) [4] | therapeutic effective dose, Target cell Enterocyte (pg/cell) [5] [pg/cell] | therapeutic effective dose, Target cell Macrophage (pg/cell) [6] [pg/cell]
CCCC(=O)O [sodium butyrate] | 71 ± 7 | 60 | 11 ± 15 | 15 | 300 | – | – | –
NC(=O)CC[C@H](N)C(=O)O [L-glutamine] | 83 ± 1 | 72 | 11 ± 7 | – | – | – | – | –
N=C(N)NCCC[C@H](N)C(=O)O [L-arginine] | 73 ± 8 | 67 | 6 ± 8 | – | – | – | – | –
CC1CCC(C(C)C)C(O)C1 (centres unmarked) [Menthol] | – | – | – | – | – | Not relevant | 20 | 20
N[C@@H](Cc1c[nH]c2ccccc12)C(=O)O [L-tryptophan] | 76 ± 2 | 62 | 14 ± 7 | – | – | – | – | –
